Results published in ChEMBL document CHEMBL1250518, “Nonsteroidal dissociated glucocorticoid agonists containing azaindoles as steroid A-ring mimetics” (J Med Chem, 2010).
pEC50, pIC50: −log10 of the molar value.

Key:
Glucocorticoid receptor [1] = biological target: T1, Glucocorticoid receptor (Homo sapiens, UniProt P04150); assay: Binding affinity to glucocorticoid receptor expressed in baculovirus-infected insect cells using tetramethylrhodamine labeled Dexamethasone by fluorescence polarization microplate assay
T1 sequence (P04150 whole entry): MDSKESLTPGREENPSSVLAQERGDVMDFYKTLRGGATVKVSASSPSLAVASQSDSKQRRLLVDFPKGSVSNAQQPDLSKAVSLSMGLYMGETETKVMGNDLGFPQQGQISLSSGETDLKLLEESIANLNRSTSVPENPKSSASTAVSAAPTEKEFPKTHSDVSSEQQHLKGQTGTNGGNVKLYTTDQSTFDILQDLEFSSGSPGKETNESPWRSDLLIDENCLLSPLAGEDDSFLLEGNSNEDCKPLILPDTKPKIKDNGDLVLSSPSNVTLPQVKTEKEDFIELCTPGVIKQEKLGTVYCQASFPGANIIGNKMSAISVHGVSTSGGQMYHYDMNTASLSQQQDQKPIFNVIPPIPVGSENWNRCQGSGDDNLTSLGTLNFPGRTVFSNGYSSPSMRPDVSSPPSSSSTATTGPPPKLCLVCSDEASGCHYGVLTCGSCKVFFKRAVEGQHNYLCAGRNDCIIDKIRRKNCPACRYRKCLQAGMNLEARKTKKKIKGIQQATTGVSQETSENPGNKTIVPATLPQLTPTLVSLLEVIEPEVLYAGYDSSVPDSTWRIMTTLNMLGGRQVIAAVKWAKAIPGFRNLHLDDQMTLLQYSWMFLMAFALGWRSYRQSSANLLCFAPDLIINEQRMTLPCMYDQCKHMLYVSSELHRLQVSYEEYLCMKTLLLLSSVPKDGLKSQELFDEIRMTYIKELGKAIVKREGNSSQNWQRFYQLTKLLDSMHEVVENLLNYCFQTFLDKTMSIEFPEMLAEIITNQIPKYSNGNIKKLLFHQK

Progesterone receptor = biological target: T2, Progesterone receptor (Homo sapiens, UniProt P06401); assay: Binding affinity to progesterone receptor expressed in baculovirus-infected insect cells using tetramethylrhodamine labeled RU-486 by fluorescence polarization microplate assay
T2 sequence (P06401 whole entry): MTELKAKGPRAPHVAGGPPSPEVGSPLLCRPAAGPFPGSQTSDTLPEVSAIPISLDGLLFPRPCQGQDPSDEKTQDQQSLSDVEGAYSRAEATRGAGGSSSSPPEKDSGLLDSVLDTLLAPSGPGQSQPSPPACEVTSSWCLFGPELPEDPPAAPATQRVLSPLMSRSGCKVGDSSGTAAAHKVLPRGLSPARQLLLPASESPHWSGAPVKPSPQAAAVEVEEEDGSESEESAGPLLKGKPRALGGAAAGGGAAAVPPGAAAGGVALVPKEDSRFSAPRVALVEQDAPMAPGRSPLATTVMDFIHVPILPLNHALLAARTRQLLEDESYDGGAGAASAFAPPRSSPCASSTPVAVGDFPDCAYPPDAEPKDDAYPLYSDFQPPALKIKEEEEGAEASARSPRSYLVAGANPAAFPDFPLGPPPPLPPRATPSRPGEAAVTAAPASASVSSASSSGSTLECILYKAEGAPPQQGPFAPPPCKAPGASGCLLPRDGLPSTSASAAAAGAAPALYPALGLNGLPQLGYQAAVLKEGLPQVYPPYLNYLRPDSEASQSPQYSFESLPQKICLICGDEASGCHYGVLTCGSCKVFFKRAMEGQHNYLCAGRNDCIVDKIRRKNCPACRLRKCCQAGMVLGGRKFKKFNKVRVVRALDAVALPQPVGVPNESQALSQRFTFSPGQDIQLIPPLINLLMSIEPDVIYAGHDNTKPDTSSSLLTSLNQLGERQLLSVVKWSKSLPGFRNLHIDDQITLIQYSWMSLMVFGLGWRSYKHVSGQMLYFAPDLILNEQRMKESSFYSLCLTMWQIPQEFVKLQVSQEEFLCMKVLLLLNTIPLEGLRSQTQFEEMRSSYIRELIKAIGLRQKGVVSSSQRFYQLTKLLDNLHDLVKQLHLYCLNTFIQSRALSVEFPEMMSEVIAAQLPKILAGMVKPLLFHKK

Glucocorticoid receptor [2] = biological target: T1, Glucocorticoid receptor; assay: Transrepression activity at glucocorticoid receptor in HFF assessed as inhibition of IL-1-induced IL-6 production after 18 to 24 hrs by ELISA; type: cell-based
Glucocorticoid receptor [3] = biological target: T1, Glucocorticoid receptor; assay: Transactivation activity at glucocorticoid receptor in HFF assessed as induction of aromatase activity after 18 to 24 hrs by ELISA; type: cell-based
[4] = Volume of distribution at steady state in Sprague-Dawley rat at 5 mg/kg, iv; type: ADME, organism-based; parameters: dose 5 mg/kg, route intravenous; details: in vivo, read-out: Vdss
[5] = Half life in Sprague-Dawley rat at 5 mg/kg, iv; type: ADME, organism-based; parameters: dose 5 mg/kg, route intravenous; details: in vivo
[6] = Cmax in Sprague-Dawley rat at 30 mg/kg, po; type: ADME, organism-based; parameters: dose 30 mg/kg, route oral; details: in vivo
Mus musculus [7] = assay: Toxicity in collagen and Freund's complete adjuvant-induced B10.RIII mouse arthritis model assessed as increase of body fat content at 30 mg/kg, po qd for 5 weeks; type: organism-based; parameters: dose 30 mg/kg, route oral; details: in vivo, 840 h
Mus musculus [8] = assay: Toxicity in collagen and Freund's complete adjuvant-induced B10.RIII mouse arthritis model assessed as increase of serum insulin level at 30 mg/kg, po qd for 5 weeks; type: organism-based; parameters: dose 30 mg/kg, route oral; details: in vivo, 840 h
Mus musculus [9] = assay: Toxicity in collagen and Freund's complete adjuvant-induced B10.RIII mouse arthritis model assessed as increase of triglyceride level at 30 mg/kg, po qd for 5 weeks; type: organism-based; parameters: dose 30 mg/kg, route oral; details: in vivo, 840 h
Mus musculus [10] = assay: Toxicity in collagen and Freund's complete adjuvant-induced B10.RIII mouse arthritis model assessed as increase of free fatty acids level at 30 mg/kg, po qd for 5 weeks; type: organism-based; parameters: dose 30 mg/kg, route oral; details: in vivo, 840 h
Mus musculus [11] = assay: Toxicity in B10.RIII mouse assessed as increase of body fat content at 30 mg/kg, po qd for 5 weeks; type: organism-based; parameters: dose 30 mg/kg, route oral; details: in vivo, 840 h

- pIC50 (Glucocorticoid receptor [1]): 8.68
- pIC50 (Progesterone receptor): 5.92
- pIC50 (Glucocorticoid receptor [2]): 8.48
- pEC50 (Glucocorticoid receptor [3]): 7.52
- Vd [4]: 7.6 L/kg
- half-life [5]: 1.85 h
- Cmax [6]: 444 ng/mL
SMILES: CC(C)(C[C@@](O)(Cc1cc2ccncc2[nH]1)C(F)(F)F)c1cc(F)ccc1O
- Activity (Mus musculus [7]): Toxic
- Activity (Mus musculus [8]): Toxic
- Activity (Mus musculus [9]): Non-toxic
- Activity (Mus musculus [10]): Non-toxic
- Activity (Mus musculus [11]): Non-toxic
